Data from a melting point compilation (Tetko et al.; mined from patent text by program, amines drawn as free bases though some values may be those of a salt).

melting point [°C] | Structure (SMILES)
115 to 117 | CCCCCCN1CCN(Cc2ccc([N+](=O)[O-])cc2)C(=O)C1=O
191 to 192 | CC(C#Cc1ccc(C(=O)O)c(O)c1)c1ccc2c(c1)C(C)(C)CCC2(C)C (stereo not drawn)
109 to 111 | Cc1nc(-c2ccc(C#N)cc2)sc1C(=O)N[C@H](C)[C@](O)(Cn1cncn1)c1ccc(F)cc1F
232 to 234 | Cn1c(Oc2ccc(-n3c4ncccc4n4ccnc34)cc2)nc2ccccc21
146 to 149 | CC(C)c1nc2c(c(-c3ccc(F)cc3)c1CO)CCCC2(C)C
110 to 111 | N#Cc1ccc(C(=C2CCCCCC2)c2ccc(O)cc2)cc1
74 | FC(F)(F)c1ccc2nc(C3CCN(c4ncccc4Cl)CC3)[nH]c2c1
184 | Clc1ccc(C2CN3CCN=C3c3ccccc32)cc1 (single isomer, unassigned; (-))
268 to 270 | N#Cc1ccc(O)cc1C(N)=O
144 to 145 | CNC(=O)c1ccc2c(c1)OC(c1ccccc1)(c1ccccc1)O2
124 to 125 | O=C(CCc1ccc(I)cc1)Cn1ccnc1
85 to 86 | COc1c(F)c(NCc2ccccc2)c(F)c(OC)c1C(=O)O
85 to 87 | CCOC(=O)C(=O)CCc1ccc(OC)c(OC)c1
137 to 138 | CCOC(=O)COc1c(F)cc(S(=O)CCNS(=O)(=O)c2ccc(Cl)cc2)cc1F (stereo not drawn)
176 to 178 | Brc1cnc2c(c1)ncn2-c1cccc(CN2CCOCC2)c1
100 to 104 | CCCc1nn(C)c2c(=O)n(CCOc3ccc(NC(C)=O)cc3)c(CC)nc12
188 to 189 | O=C(NCc1ccccn1)Nc1cc(N2CC(c3cccc(F)c3)CC2=O)ccn1 (stereo not drawn)
64 to 66 | CC(C)OC(=O)C(C(=O)O)c1ccccc1 (stereo not drawn)
298 to 301 | O=C(O)c1ccc(N2C(=O)C(=Cc3ccccc3)SC2=S)cc1

melting point [°C] | Structure (SMILES)
212 to 216 | Cc1[nH]cnc1CN1CC2COc3ccccc3N2C1=O (stereo not drawn)
150 to 151 | Cc1ccc(C(O)(Cc2nnnn2C)c2ccc(C)cc2F)c(F)c1
154 to 155 | c1ccc(Cn2ncc3c2-c2ccccc2C3(Cc2ccncc2)Cc2ccncc2)cc1
123 to 125 | O=C(N1CCC(O)(c2ccccc2)CC1)C(F)(F)F
166 to 167 | COc1ccc2c(c1)Sc1cc(OC)ccc1N2C
194 to 196 | O=c1[nH]c2ncc(-c3ccccn3)nc2n1CC1CCCCC1
274 to 276 | COc1cc2c(cc1Br)C(=CNc1ccc(N3CCN(C)CC3)cc1)C(=O)NC2=O
207 to 208 | N#Cc1cn(-c2ccccn2)nc1-c1ccc([N+](=O)[O-])o1
245 to 246 | O=C(Nc1ccc(Cl)cc1F)c1cc(-c2ccc(F)cc2F)ccc1O
113 to 115 | CC1=NN(C)C(=O)C1(Cl)C(Cl)c1ccc(Cl)cc1Cl (stereo not drawn)
106 | COc1c(C)cc2c(c1C)C[C@@H]1c3cc(C(C)C)ccc3N[C@H]21 (relative stereo)
103 to 106 | CCCCc1nc(N)c(C(=O)OCC)[nH]1
225 to 230 | CCc1ccc2c(c1)C=Cc1cc(C)ccc1C2c1cn(-c2ccc(SCC(=O)O)nn2)c(=O)[nH]c1=O (stereo not drawn)
130 to 132 | COc1ccc2[nH]c(S(=O)Cc3cc(N)c(Br)cn3)nc2c1 (stereo not drawn)
98 to 99 | CCC(=O)C(=Cc1ccccc1)c1cc(C)cs1
157 to 159 | CCOC(=O)c1cn(-c2nc(C)ns2)c2cc(F)c(F)cc2c1=O
143 to 145 | CC#CCOc1ccc(S(=O)(=O)N(C)C(CCCSc2ccc(Cl)cc2)(NC)C(=O)O)cc1 (stereo not drawn)
190 | Cc1ccc(CO)cc1NC(=O)CC12CC3CC(CC(C3)C1)C2
242 to 245 | O=C1NCCc2[nH]c3ccc(F)cc3c21

melting point [°C] | Structure (SMILES)
59 to 61 | C(=Nn1ccnc1N1CCOCC1)c1ccccc1
181 to 182 | COc1cc(F)cc(-c2ccc3c(c2)C(C)(C)OC(=O)N3)c1
196 | O=C1c2c(Cl)ccc(Cl)c2-c2nn(CCNCCO)c3ccc(NCCNCCO)c1c23
258 to 259 | Cn1nc2nc(C(C)(C)C)[nH]c(=O)c2c1N(S(C)(=O)=O)S(C)(=O)=O
> 300 | CC(C)C[C@H](NC1CCOCC1)C(=O)O
268 | Cc1cc(NC(=O)C2=C(O)c3ccc4ccccc4c3S(=O)(=O)N2C)sn1
60 | CCSc1cc(=O)c2c(O)cc(OC)c(C3CCN(C)CC3O)c2o1 (stereo not drawn)
180 to 181 | CS(=O)(=O)c1ccc(-c2cnn(-c3ccc(F)c(Cl)c3)c(=O)c2C2CCCCC2)cc1
117 to 119 | COC(=O)c1ccc(NN=CC(F)(F)F)cc1S(=O)(=O)NC(=O)Nc1nc(OC)nc(OC)n1
124 to 126 | c1ncc2ncncc2n1
158 to 168 | CC(C)(C)c1cc(C=C2SC(=S)N(C3CC3)C2=O)cc(C(C)(C)C)c1O
82 to 84 | CC(C)c1ccc(O)c(C(C)C)c1NC(=O)CN1CCN(CCSc2nc3cccc(C(F)(F)F)c3o2)CC1
104 to 106 | CCCCCCCCCCNC(=O)c1ccc(N(CC(=O)OC)CC(=O)OC)cc1
254 to 255 | O=c1c2c(Cc3ccc([N+](=O)[O-])cc3)n[nH]c2c2cccnc2n1-c1ccccc1
50 | COC(=O)COc1cccc(CNC(=O)C2Cc3ccccc3N2S(=O)(=O)c2ccc(-c3cccc(C(F)(F)F)c3)cc2)c1 (stereo not drawn)
171 to 176 | CC(C(=O)O)c1cccc2cn[nH]c12 (stereo not drawn)
157 to 159 | Oc1ccc2c(c1)CC(NCC(O)c1ccccc1)CC2 (stereo not drawn)
104 | CC(=O)NCC1(N2CCCCC2)CCCCC1
95 | C=CCOc1ccc(C(=O)c2ccc(OCC=C)cc2O)c(O)c1

The remaining lines, values behind:

Structure (SMILES) | melting point [°C]
O=C(CC(O)C(=O)O)c1ccc(C(F)(F)F)cc1 (stereo not drawn) | 118 to 120
O=c1c(-c2n[nH]c3ccccc23)coc2ccccc12 | 159 to 160
C=Cc1ccc(OC)cc1C1C(C(=O)OC)=C(C)NC(C)=C1C(=O)OC | 141 to 143
CC1(C)Oc2ccc([N+](=O)[O-])cc2C2OC21 (stereo not drawn) | 91 to 93
COc1cc2cc(-c3cc(C)c(O)c(C)c3)[nH]c(=O)c2c(OC)c1CN1CCOCC1 | 158 to 161
C[C@]12CC[C@]3(C)C(O)CC[C@H]3[C@@H]1CCC1=C2CC=C(O)C1 (stereo partly drawn) | 86 to 90
Cn1cc(OS(C)(=O)=O)c(=O)c2ccccc21 | 208 to 209
C=Cc1cc(Br)c(Br)cc1Br | 64
C#CCOc1cc2ccccc2cc1COC(=O)C1CC1 | 58 to 60
CC(=O)OC1CC2CCC3C4CC(N5CCCCC5)C(=O)C4(C)CCC3C2(C)CC1N1CCCCC1 (stereo not drawn) | 154
CCN(CC)c1c([N+](=O)[O-])cc(C#N)c(N)c1[N+](=O)[O-] | 146
O=C1c2ccc(N3CCCC3)c3cc([N+](=O)[O-])cc(c23)C(=O)N1O | 290 to 291
CN1CS(=O)c2ccccc21 (stereo not drawn) | 70 to 73.5
Cc1ccc(S(=O)(=O)N2CCCC2c2ccc(C)cc2C)cc1 (racemic) | 130
COc1ccc2ccccc2c1-c1cc2c(c(-c3ccccc3)c1P(=O)(c1ccccc1)c1ccccc1)COC2 | 129 to 131
O=CN1CCC(C(=O)N2CCN3C(=O)OC(c4ccccc4)(c4ccccc4)C3C2)CC1 (stereo not drawn) | 133 to 136
CC(C)(C)c1ccc(S(=O)(=O)N2c3ccccc3C[C@H]2C(=O)NCc2ccc(NCC(=O)O)cc2)cc1 | 110
N#CCC(O)(c1ccc(Br)cc1)c1ccc(-c2ccc(Br)cc2)cc1 (stereo not drawn) | 154
Cc1oc(-c2ccc(C(F)(F)F)cc2)nc1COc1ccc(S(=O)(=O)Cl)cc1 | 90 to 93
COc1ccc(CC(C)NCC(O)c2cccc(F)c2)cc1 (stereo not drawn) | 85 to 89
CNC(=O)c1cc2ccccc2c(-c2ccc(I)cc2)n1 | 163 to 164

Structure (SMILES) | melting point [°C]
COC(=O)[C@@H]1C(=O)c2cc(OCc3ccccc3)ccc2[C@H]1c1ccc2c(c1)OCO2 (racemic) | 148 to 150
Cn1c(=O)nc(-c2ccccc2)c2cc(Cl)sc21 | 136 to 140
CN1CCC23c4c5ccc(OCCCCN)c4CC1C2C=CC(O)C3O5 (stereo not drawn) | 140 to 142
CCCc1c(CSc2nnc(SCCCCCCC(=O)O)s2)ccc(C(C)=O)c1O | 63 to 68
CC1Oc2ccc(CCl)cc2NC1=O (stereo not drawn) | 162 to 169
Nc1nc(C(F)(F)C(F)(F)F)nn1-c1c(Cl)cc(C(F)(F)F)cc1Cl | 181 to 183
COc1cc(C(=O)N2CCN(C(=O)C3=Cc4cc(OCc5ccccc5)c(OCc5ccccc5)cc4CCC3)CC2)cc(OC)c1OC | 130 to 132
O=C(NC1C(=O)N(CC2C3CC4CC(C3)CC2C4)c2ccccc2N(c2ccccc2)C1=O)Oc1ccccc1 (stereo not drawn) | 167 to 168
CCCCCCCCCCCCS(=O)(=O)c1ccccc1[N+](=O)[O-] | 47 to 48
CCN(CC)CCCCNc1ncc2c(n1)N(C1CC1)C(=O)N(c1c(F)c(OC)cc(OC)c1F)C2 | 139 to 141
CCCCC(NC(=O)C(CC(C)C)NC(=O)c1ccc2ccccc2c1)C(=O)CSCc1ccco1 (stereo not drawn) | 97 to 99
Cc1c(C(=O)NCc2ccccc2)nc(-n2ccc(OCc3ccccc3)cc2=O)n1C | 190 to 191
CCS(=O)(=O)N(C(C)=O)c1cc(-n2nc3ccc(Cl)cn3c2=O)c(F)cc1C#N | 220 to 222
OCC1OC(n2cnc3c(NCCc4csc5ccccc45)ncnc32)C(O)C1O (stereo not drawn) | 173 to 174
Cc1nc(N2CCN(Cc3ccc(F)cc3)C2=O)sc1-c1nn[nH]n1 | 145 to 149
CC(=O)Nc1cc2c(c3c1OC(C)(C)C3)C(c1ccccc1)=NC(C)(C)C2 | 175 to 180
Cc1cnc(N2CCN(c3ccc([N+](=O)[O-])cc3)CC2)n1C | 204 to 205
CCC(=O)Nc1ccc(OCc2nc(Cl)ccc2Cl)cc1 | 169 to 171
O=S(=O)(Nc1ccc2c(OCc3nc(-c4ccc(F)cc4)no3)cccc2c1)C(F)(F)F | 131 to 132
CN1CCN(Cc2ccccc2Cl)C(C(=O)NCCCl)C1 (stereo not drawn) | 74 to 75
